Data reported in patent US10787452B2 (Vertex Pharmaceuticals Incorporated, priority 2012, dated 2020).

These compounds were tested on HCT116 colorectal cancer cells (assay: Cisplatin sensitization assay (96 h cell viability MTS)). Conditions: 96 h MTS, compound plus Cisplatin.
Type: cell-based
Method in brief: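 HCT116 cells were co-treated with compound and cisplatin, each in 2-fold serial dilutions from a 10 μM top final concentration, as a full matrix. After 96 h at 37 °C, 5% CO2, viability was read by MTS following a 1 h incubation with reagent.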
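Also: compound concentration needed to lower the Cisplatin-alone IC50 by a set fold.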

| SMILES | Cisplatin Sensitization Assay |
| --- | --- |
| CN1CCN(C2CCN(c3c(F)cncc3NC(=O)c3c(N)nn4cc(F)cnc34)CC2)C(=O)C1 [I-N-151, 2-amino-6-fluoro-N-(5-fluoro-4-(4-(4-methyl-2-oxopiperazin-1-yl)piperidin-1-yl)pyridin-3-yl)pyrazolo[1,5-a]pyrimidine-3-carboxamide] | + (Compounds with a Cisplatin sensitization value >0.2 μM but <5 μM are marked with “+.”) |
| Nc1nn2cc(F)cnc2c1C(=O)Nc1cnccc1N1CCCCC1 [I-N-152, 2-amino-6-fluoro-N-(4-(piperidin-1-yl)pyridin-3-yl)pyrazolo[1,5-a]pyrimidine-3-carboxamide] | +++ (Compounds with a Cisplatin sensitization value of <0.02 μM are marked with “+++.”) |
| CN(C)CC(=O)N1CCN(c2c(F)cncc2NC(=O)c2c(N)nn3cc(F)cnc23)CC1 [I-N-153, 2-amino-N-(4-(4-(2-(dimethylamino)acetyl)piperazin-1-yl)-5-fluoropyridin-3-yl)-6-fluoropyrazolo[1,5-a]pyrimidine-3-carboxamide] | ++ (Compounds with a Cisplatin sensitization value >0.02 μM but <0.2 μM are marked with “++.”) |
| CN1CCC(OC2CCN(c3ccncc3NC(=O)c3c(N)nn4cc(F)cnc34)CC2)CC1 [I-N-154, 2-amino-6-fluoro-N-(4-(4-((1-methylpiperidin-4-yl)oxy)piperidin-1-yl)pyridin-3-yl)pyrazolo[1,5-a]pyrimidine-3-carboxamide] | +++ (Compounds with a Cisplatin sensitization value of <0.02 μM are marked with “+++.”) |
| Nc1nn2cc(F)cnc2c1C(=O)Nc1cncc(F)c1N1CCC(S(=O)(=O)N2CCOCC2)CC1 [I-N-155, 2-amino-6-fluoro-N-(5-fluoro-4-(4-(morpholinosulfonyl)piperidin-1-yl)pyridin-3-yl)pyrazolo[1,5-a]pyrimidine-3-carboxamide] | +++ (Compounds with a Cisplatin sensitization value of <0.02 μM are marked with “+++.”) |
| CN1CCC(C(=O)N2CCN(c3c(F)cncc3NC(=O)c3c(N)nn4cc(F)cnc34)CC2)C1 (stereo not drawn) [I-N-156, 2-amino-6-fluoro-N-(5-fluoro-4-(4-(1-methylpyrrolidine-3-carbonyl)piperazin-1-yl)pyridin-3-yl)pyrazolo[1,5-a]pyrimidine-3-carboxamide] | +++ (Compounds with a Cisplatin sensitization value of <0.02 μM are marked with “+++.”) |
| CN1CCC[C@H]1C(=O)N1CCN(c2c(F)cncc2NC(=O)c2c(N)nn3cc(F)cnc23)CC1 [I-N-157, (S)-2-amino-6-fluoro-N-(5-fluoro-4-(4-(1-methylpyrrolidine-2-carbonyl)piperazin-1-yl)pyridin-3-yl)pyrazolo[1,5-a]pyrimidine-3-carboxamide] | ++ (Compounds with a Cisplatin sensitization value >0.02 μM but <0.2 μM are marked with “++.”) |
| Nc1nn2cc(F)cnc2c1C(=O)Nc1cncc(F)c1N1CCN(S(=O)(=O)C2CCOCC2)CC1 [I-N-158, 2-amino-6-fluoro-N-(5-fluoro-4-(4-((tetrahydro-2H-pyran-4-yl)sulfonyl)piperazin-1-yl)pyridin-3-yl)pyrazolo[1,5-a]pyrimidine-3-carboxamide] | +++ (Compounds with a Cisplatin sensitization value of <0.02 μM are marked with “+++.”) |
| Nc1nn2cc(F)cnc2c1C(=O)Nc1cncc(F)c1N1CCN(S(=O)(=O)C2CC2)CC1 [I-N-159, 2-amino-N-(4-(4-(cyclopropylsulfonyl)piperazin-1-yl)-5-fluoropyridin-3-yl)-6-fluoropyrazolo[1,5-a]pyrimidine-3-carboxamide] | +++ (Compounds with a Cisplatin sensitization value of <0.02 μM are marked with “+++.”) |
| Nc1nn2cc(F)cnc2c1C(=O)Nc1cncc(F)c1N1CCN(C(=O)CN2CCC2)CC1 [I-N-160, 2-amino-N-(4-(4-(2-(azetidin-1-yl)acetyl)piperazin-1-yl)-5-fluoropyridin-3-yl)-6-fluoropyrazolo[1,5-a]pyrimidine-3-carboxamide] | +++ (Compounds with a Cisplatin sensitization value of <0.02 μM are marked with “+++.”) |
| Cc1ncn(-c2ccncc2NC(=O)c2c(N)nn3cc(F)cnc23)n1 [I-N-161, 2-amino-6-fluoro-N-(4-(3-methyl-1H-1,2,4-triazol-1-yl)pyridin-3-yl)pyrazolo[1,5-a]pyrimidine-3-carboxamide] | + (Compounds with a Cisplatin sensitization value >0.2 μM but <5 μM are marked with “+.”) |
| Cc1ncnn1-c1ccncc1NC(=O)c1c(N)nn2cc(F)cnc12 [I-N-162, 2-amino-6-fluoro-N-(4-(5-methyl-1H-1,2,4-triazol-1-yl)pyridin-3-yl)pyrazolo[1,5-a]pyrimidine-3-carboxamide] | ++ (Compounds with a Cisplatin sensitization value >0.02 μM but <0.2 μM are marked with “++.”) |
| Nc1nn2cc(F)cnc2c1C(=O)Nc1cncc(F)c1N1CCN2C(=O)CCC2C1 (stereo not drawn) [I-N-163, 2-amino-6-fluoro-N-(5-fluoro-4-(6-oxohexahydropyrrolo[1,2-a]pyrazin-2(1H)-yl)pyridin-3-yl)pyrazolo[1,5-a]pyrimidine-3-carboxamide] | +++ (Compounds with a Cisplatin sensitization value of <0.02 μM are marked with “+++.”) |
| CN1CC(OC2CCN(c3ccncc3NC(=O)c3c(N)nn4cc(F)cnc34)CC2)C1 [I-N-164, 2-amino-6-fluoro-N-(4-(4-((1-methylazetidin-3-yl)oxy)piperidin-1-yl)pyridin-3-yl)pyrazolo[1,5-a]pyrimidine-3-carboxamide] | +++ (Compounds with a Cisplatin sensitization value of <0.02 μM are marked with “+++.”) |
| CS(=O)(=O)C1CCN(c2c(F)cncc2NC(=O)c2c(N)nn3cc(F)cnc23)CC1 [I-N-165, 2-amino-6-fluoro-N-(5-fluoro-4-(4-(methylsulfonyl)piperidin-1-yl)pyridin-3-yl)pyrazolo[1,5-a]pyrimidine-3-carboxamide] | +++ (Compounds with a Cisplatin sensitization value of <0.02 μM are marked with “+++.”) |
| CN1CCN(S(=O)(=O)C2CCN(c3c(F)cncc3NC(=O)c3c(N)nn4cc(F)cnc34)CC2)CC1 [I-N-166, 2-amino-6-fluoro-N-(5-fluoro-4-(4-((4-methylpiperazin-1-yl)sulfonyl)piperidin-1-yl)pyridin-3-yl)pyrazolo[1,5-a]pyrimidine-3-carboxamide] | +++ (Compounds with a Cisplatin sensitization value of <0.02 μM are marked with “+++.”) |
| Nc1nn2cc(F)cnc2c1C(=O)Nc1cncc(F)c1N1CCC(OCCN2CCCC2)CC1 [I-N-167, 2-amino-6-fluoro-N-(5-fluoro-4-(4-(2-(pyrrolidin-1-yl)ethoxy)piperidin-1-yl)pyridin-3-yl)pyrazolo[1,5-a]pyrimidine-3-carboxamide] | +++ (Compounds with a Cisplatin sensitization value of <0.02 μM are marked with “+++.”) |
| Nc1nn2cc(F)cnc2c1C(=O)Nc1cncc(F)c1N1CCN(C(=O)C2CNC2)CC1 [I-N-168, 2-amino-N-(4-(4-(azetidine-3-carbonyl)piperazin-1-yl)-5-fluoropyridin-3-yl)-6-fluoropyrazolo[1,5-a]pyrimidine-3-carboxamide] | + (Compounds with a Cisplatin sensitization value >0.2 μM but <5 μM are marked with “+.”) |
| Nc1nn2cc(F)cnc2c1C(=O)Nc1cncc(F)c1N1CCC(S(=O)(=O)N2CCC2)CC1 [I-N-169, 2-amino-N-(4-(4-(azetidin-1-ylsulfonyl)piperidin-1-yl)-5-fluoropyridin-3-yl)-6-fluoropyrazolo[1,5-a]pyrimidine-3-carboxamide] | +++ (Compounds with a Cisplatin sensitization value of <0.02 μM are marked with “+++.”) |
| Nc1nn2cc(F)cnc2c1C(=O)Nc1cnccc1N1CCC(S(=O)(=O)N2CCOCC2)CC1 [I-N-170, 2-amino-6-fluoro-N-(4-(4-(morpholinosulfonyl)piperidin-1-yl)pyridin-3-yl)pyrazolo[1,5-a]pyrimidine-3-carboxamide] | +++ (Compounds with a Cisplatin sensitization value of <0.02 μM are marked with “+++.”) |
| CN1CCN(CC2CCN(c3c(F)cncc3NC(=O)c3c(N)nn4cc(F)cnc34)CC2)CC1=O [I-N-171, 2-amino-6-fluoro-N-(5-fluoro-4-(4-((4-methyl-3-oxopiperazin-1-yl)methyl)piperidin-1-yl)pyridin-3-yl)pyrazolo[1,5-a]pyrimidine-3-carboxamide] | +++ (Compounds with a Cisplatin sensitization value of <0.02 μM are marked with “+++.”) |
| Nc1nn2cc(F)cnc2c1C(=O)Nc1cncc(F)c1N1CCN(C(=O)C2CNCCO2)CC1 (stereo not drawn) [I-N-172, 2-amino-6-fluoro-N-(5-fluoro-4-(4-(morpholine-2-carbonyl)piperazin-1-yl)pyridin-3-yl)pyrazolo[1,5-a]pyrimidine-3-carboxamide] | +++ (Compounds with a Cisplatin sensitization value of <0.02 μM are marked with “+++.”) |
| CN1CCCCC1C(=O)N1CCN(c2c(F)cncc2NC(=O)c2c(N)nn3cc(F)cnc23)CC1 (stereo not drawn) [I-N-173, 2-amino-6-fluoro-N-(5-fluoro-4-(4-(1-methylpiperidine-2-carbonyl)piperazin-1-yl)pyridin-3-yl)pyrazolo[1,5-a]pyrimidine-3-carboxamide] | +++ (Compounds with a Cisplatin sensitization value of <0.02 μM are marked with “+++.”) |
| CN1CCOC(C(=O)N2CCN(c3c(F)cncc3NC(=O)c3c(N)nn4cc(F)cnc34)CC2)C1 (stereo not drawn) [I-N-174, 2-amino-6-fluoro-N-(5-fluoro-4-(4-(4-methylmorpholine-2-carbonyl)piperazin-1-yl)pyridin-3-yl)pyrazolo[1,5-a]pyrimidine-3-carboxamide] | +++ (Compounds with a Cisplatin sensitization value of <0.02 μM are marked with “+++.”) |
